How the values were obtained:
[1] = Selectivity index, ratio of IC50 for inhibition of equine serum BuChE to IC50 for inhibition of electric eel AChE
Acetylcholinesterase [2] = biological target: T1, Acetylcholinesterase (Homo sapiens, UniProt P22303); experiment: Inhibition of AChE (unknown origin) using acetylthiocholine iodide as substrate preincubated for 45 mins followed by substrate addition by DTNB reagent based Ellman's method
[3] = Antioxidant activity assessed as NO radical scavenging activity incubated for 150 mins in presence of sodium nitroprusside by griess reagent based assay; format: functional
[4] = Antioxidant activity assessed as DPPH radical scavenging activity incubated for 30 mins by DPPH assay; format: functional
Acetylcholinesterase [5] = biological target: T1, Acetylcholinesterase; experiment: Inhibition of recombinant human AChE using acetylthiocholine iodide as substrate by Ellman's method
Cholinesterase [6] = biological target: T2, Cholinesterase (Equus caballus, UniProt P81908); experiment: Inhibition of equine serum BuChE using butyrylthiocholine iodide as substrate by Ellman's method
Acetylcholinesterase [7] = biological target: T3, Acetylcholinesterase (Electrophorus electricus, UniProt O42275); experiment: Inhibition of Electrophorus electricus AChE using acetylthiocholine iodide as substrate preincubated for 5 mins followed by substrate addition and measured for 5 mins by spectrophotometric based Ellman's method
[8] = biological target: Microtubule-associated protein tau (Homo sapiens) (UniProt P10636); experiment: Inhibition of tau aggregation (unknown origin) at 20 uM for 72 hrs by thioflavin S based fluorescence analysis
Acetylcholinesterase [9] = biological target: T1, Acetylcholinesterase; experiment: Inhibition of AChE (unknown origin) by spectrophotometric based Ellman's method
Cholinesterase [10] = biological target: T4, Cholinesterase (Homo sapiens, UniProt P06276); experiment: Inhibition of BuChE (unknown origin) by spectrophotometric based Ellman's method
SK-N-MC = experiment: Antiproliferative activity against human SK-N-MC cells assessed as reduction in cell proliferation incubated for 72 hrs by MTT assay; format: functional, cell-based
[11] = Permeability of compound by PAMPA-BBB assay; format: ADME; settings: read-out: permeability
Homo sapiens = species on record: Homo sapiens; experiment: Selectivity index, ratio of IC50 for inhibition of human AChE to IC50 for inhibition of human BuChE
[12] = biological target: T5, Amyloid-beta precursor protein (Homo sapiens, UniProt P05067); experiment: Inhibition of self-induced amyloid beta (1 to 42) (unknown origin) aggregation by Thioflavin T based fluorometric assay
Acetylcholinesterase [13] = biological target: T1, Acetylcholinesterase; experiment: Inhibition of human AChE using acetylthiocholine iodide as substrate by Ellman's method
[14] = biological target: 72 kDa type IV collagenase (Homo sapiens, UniProt P08253); experiment: Inhibition of MMP-2 (unknown origin) by Fluorometric analysis
Acetylcholinesterase [15] = biological target: T1, Acetylcholinesterase; experiment: Inhibition of recombinant human AChE using Amplex red, acetylthiocholine as substrate preincubated for 15 mins followed by substrate addition and measured after 30 mins by microplate fluorescence reader analysis
Acetylcholinesterase [16] = biological target: T3, Acetylcholinesterase; experiment: Inhibition of Electrophorus electricus AChE using acetylthiocholine iodide as substrate preincubated for 5 mins followed by substrate addition and measured for 2 mins by spectrophotometric based Ellman's method
Cholinesterase [17] = biological target: T2, Cholinesterase; experiment: Inhibition of equine serum BuChE using butyrylthiocholine iodide as substrate preincubated for 5 mins followed by substrate addition and measured for 2 mins by spectrophotometric based Ellman's method
[18] = biological target: T5, Amyloid-beta precursor protein; experiment: Inhibition of amyloid beta (1 to 42) (unknown origin) self aggregation at 40 uM and measured after 24 hrs by Thioflavin T based fluorometric assay
[19] = biological target: T5, Amyloid-beta precursor protein; experiment: Inhibition of amyloid beta (1 to 42) (unknown origin) self aggregation incubated for 24 hrs by Thioflavin T based fluorometric assay
Acetylcholinesterase [20] = biological target: T1, Acetylcholinesterase; experiment: Inhibition of human AChE using acetylthiocholine iodide as substrate preincubated for 6 mins followed by substrate addition and measured for 12 mins by DTNB reagent based Ellman's method
Cholinesterase [21] = biological target: T4, Cholinesterase; experiment: Inhibition of human BuChE using butyrylthiocholine iodide as substrate at 10 uM preincubated for 6 mins followed by substrate addition and measured for 12 mins by DTNB reagent based Ellman's method; settings: time 18.0 min
Beta-secretase 1 = Beta-secretase 1 (Homo sapiens, UniProt P56817); experiment: Inhibition of human BACE-1 using Rh-EVNLDAEFK-quencher as peptide substrate incubated for 1 hr in dark by FRET assay
[22] = biological target: Glycogen synthase kinase-3 beta (Homo sapiens) (UniProt P49841); experiment: Inhibition of GSK-3beta (unknown origin) at 10 uM by Kinase-GLO reagent based assay
Glycogen synthase kinase-3 beta (Homo sapiens), sequence (P49841 whole entry, looked up): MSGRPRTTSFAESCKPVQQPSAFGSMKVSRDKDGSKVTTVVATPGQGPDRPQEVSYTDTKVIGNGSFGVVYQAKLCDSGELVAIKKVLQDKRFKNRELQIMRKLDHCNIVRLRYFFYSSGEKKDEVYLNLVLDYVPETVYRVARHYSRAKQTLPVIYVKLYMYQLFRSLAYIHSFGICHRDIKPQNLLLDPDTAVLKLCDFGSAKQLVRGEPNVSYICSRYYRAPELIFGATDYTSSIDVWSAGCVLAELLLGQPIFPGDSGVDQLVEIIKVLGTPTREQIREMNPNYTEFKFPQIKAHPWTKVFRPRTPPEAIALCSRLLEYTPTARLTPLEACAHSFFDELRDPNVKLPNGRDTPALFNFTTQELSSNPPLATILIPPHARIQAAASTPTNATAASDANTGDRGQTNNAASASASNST

T5 sequence (P05067 whole entry): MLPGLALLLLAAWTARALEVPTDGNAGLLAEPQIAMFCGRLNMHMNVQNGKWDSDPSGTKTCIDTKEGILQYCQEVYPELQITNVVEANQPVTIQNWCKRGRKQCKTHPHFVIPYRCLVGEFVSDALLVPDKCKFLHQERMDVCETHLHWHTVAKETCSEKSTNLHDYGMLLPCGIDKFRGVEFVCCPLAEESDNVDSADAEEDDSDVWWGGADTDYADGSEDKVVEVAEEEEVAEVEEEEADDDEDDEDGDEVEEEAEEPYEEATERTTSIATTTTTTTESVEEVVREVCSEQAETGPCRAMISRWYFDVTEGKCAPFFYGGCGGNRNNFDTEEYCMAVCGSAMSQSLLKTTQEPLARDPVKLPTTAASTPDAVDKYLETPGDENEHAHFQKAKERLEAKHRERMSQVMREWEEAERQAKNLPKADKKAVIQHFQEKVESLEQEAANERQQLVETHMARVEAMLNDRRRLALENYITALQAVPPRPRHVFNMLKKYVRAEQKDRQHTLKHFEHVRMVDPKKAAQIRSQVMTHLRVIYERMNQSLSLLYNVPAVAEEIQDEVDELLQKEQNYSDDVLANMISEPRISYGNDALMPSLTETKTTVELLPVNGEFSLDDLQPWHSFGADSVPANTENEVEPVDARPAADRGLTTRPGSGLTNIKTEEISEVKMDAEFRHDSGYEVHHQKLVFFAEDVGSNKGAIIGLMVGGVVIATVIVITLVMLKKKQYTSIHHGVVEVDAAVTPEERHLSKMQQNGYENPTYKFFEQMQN
T1 sequence (P22303 whole entry): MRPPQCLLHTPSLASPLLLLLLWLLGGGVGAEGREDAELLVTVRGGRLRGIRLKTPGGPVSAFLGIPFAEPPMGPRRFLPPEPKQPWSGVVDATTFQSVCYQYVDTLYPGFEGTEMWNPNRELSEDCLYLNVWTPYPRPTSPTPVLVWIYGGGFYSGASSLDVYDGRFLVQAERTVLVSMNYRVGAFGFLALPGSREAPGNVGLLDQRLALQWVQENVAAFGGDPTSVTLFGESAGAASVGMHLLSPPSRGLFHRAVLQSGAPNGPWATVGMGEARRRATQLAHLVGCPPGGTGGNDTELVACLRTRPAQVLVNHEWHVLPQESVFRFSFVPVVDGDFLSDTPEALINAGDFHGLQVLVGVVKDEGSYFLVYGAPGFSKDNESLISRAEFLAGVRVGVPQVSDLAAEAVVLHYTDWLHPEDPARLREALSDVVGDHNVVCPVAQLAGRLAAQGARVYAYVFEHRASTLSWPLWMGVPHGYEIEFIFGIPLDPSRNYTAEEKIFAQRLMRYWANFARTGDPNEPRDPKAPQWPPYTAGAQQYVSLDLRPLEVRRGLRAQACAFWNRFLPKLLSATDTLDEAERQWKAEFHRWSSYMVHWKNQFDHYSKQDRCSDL
Microtubule-associated protein tau (Homo sapiens), sequence (P10636 whole entry): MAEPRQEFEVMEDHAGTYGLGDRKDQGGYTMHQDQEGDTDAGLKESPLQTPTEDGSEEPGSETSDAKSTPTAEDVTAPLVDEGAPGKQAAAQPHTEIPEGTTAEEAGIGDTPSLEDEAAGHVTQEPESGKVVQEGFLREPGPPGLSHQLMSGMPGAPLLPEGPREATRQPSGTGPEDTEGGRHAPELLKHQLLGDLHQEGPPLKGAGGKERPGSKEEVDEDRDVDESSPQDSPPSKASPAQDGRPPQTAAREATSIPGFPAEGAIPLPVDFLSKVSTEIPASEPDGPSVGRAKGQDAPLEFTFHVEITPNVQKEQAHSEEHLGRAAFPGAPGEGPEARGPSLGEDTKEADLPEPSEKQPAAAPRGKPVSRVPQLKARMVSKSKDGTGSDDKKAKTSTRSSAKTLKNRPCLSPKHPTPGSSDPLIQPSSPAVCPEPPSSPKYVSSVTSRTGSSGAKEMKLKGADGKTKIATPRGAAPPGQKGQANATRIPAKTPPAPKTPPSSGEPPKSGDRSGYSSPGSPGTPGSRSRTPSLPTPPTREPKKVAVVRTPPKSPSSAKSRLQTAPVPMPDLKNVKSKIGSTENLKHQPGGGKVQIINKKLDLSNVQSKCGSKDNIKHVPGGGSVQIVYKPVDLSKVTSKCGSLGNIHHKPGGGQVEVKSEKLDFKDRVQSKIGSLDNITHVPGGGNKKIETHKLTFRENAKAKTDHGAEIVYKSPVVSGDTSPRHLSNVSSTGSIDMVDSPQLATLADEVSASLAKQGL
T3 sequence (O42275 whole entry): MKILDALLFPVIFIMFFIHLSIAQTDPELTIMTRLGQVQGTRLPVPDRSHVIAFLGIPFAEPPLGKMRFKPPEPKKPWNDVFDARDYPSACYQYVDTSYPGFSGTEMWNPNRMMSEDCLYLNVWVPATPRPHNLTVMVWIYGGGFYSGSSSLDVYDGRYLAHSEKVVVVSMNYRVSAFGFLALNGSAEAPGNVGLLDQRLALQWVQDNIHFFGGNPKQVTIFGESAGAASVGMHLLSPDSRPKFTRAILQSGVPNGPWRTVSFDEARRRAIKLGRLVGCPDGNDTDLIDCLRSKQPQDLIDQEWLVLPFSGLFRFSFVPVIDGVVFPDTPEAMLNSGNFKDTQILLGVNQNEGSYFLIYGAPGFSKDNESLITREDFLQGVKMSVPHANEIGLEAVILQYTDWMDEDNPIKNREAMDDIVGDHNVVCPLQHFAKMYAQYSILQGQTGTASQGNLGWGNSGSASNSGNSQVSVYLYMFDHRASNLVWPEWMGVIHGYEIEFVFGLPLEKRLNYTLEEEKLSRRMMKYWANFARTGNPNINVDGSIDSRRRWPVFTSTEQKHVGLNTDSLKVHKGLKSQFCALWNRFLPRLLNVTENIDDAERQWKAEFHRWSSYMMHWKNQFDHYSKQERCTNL
T4 sequence (P06276 whole entry): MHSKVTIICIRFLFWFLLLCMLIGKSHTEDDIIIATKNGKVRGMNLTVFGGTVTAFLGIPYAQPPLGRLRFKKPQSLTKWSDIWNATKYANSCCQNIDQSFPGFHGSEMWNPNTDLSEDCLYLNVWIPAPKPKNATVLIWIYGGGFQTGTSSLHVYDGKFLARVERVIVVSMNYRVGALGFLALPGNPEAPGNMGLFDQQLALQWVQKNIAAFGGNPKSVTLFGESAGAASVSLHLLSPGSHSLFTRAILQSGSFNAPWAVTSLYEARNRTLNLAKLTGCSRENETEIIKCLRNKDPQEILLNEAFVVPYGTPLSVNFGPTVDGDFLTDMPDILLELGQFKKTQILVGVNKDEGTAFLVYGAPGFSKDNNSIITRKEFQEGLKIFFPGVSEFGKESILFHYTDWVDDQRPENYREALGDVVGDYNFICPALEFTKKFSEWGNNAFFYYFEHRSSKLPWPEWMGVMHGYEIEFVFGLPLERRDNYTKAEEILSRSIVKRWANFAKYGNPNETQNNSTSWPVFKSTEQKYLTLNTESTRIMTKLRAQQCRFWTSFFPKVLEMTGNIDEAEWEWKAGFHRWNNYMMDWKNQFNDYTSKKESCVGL
T2 sequence (P81908 whole entry): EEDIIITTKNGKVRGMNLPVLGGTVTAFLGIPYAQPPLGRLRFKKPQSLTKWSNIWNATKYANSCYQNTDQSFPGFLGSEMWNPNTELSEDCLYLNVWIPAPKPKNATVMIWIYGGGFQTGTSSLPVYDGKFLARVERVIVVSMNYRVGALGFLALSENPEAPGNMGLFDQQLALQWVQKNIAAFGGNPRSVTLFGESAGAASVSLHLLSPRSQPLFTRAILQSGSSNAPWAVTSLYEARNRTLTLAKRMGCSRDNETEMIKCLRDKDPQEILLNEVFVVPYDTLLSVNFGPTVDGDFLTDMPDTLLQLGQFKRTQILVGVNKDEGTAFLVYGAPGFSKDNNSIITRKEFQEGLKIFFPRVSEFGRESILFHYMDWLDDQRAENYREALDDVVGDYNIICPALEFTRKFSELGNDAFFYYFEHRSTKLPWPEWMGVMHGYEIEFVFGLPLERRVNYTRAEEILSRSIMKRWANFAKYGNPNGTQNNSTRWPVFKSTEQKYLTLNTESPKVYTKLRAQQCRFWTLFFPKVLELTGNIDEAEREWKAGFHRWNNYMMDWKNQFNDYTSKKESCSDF
Beta-secretase 1, sequence (P56817 whole entry): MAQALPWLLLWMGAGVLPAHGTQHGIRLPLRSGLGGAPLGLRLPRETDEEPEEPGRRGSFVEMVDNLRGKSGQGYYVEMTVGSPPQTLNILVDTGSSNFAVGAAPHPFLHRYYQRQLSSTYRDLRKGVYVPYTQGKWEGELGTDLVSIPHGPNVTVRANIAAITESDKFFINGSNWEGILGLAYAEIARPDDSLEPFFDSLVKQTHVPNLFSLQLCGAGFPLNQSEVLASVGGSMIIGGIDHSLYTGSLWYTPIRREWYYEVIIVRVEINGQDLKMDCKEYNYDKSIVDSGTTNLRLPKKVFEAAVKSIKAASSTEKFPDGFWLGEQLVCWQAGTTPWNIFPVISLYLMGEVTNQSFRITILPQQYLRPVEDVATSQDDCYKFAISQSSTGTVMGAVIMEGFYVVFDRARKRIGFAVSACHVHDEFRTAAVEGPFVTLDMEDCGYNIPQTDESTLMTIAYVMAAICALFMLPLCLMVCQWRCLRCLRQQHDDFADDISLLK

Compound: Cc1nc(C)c(C(=O)OCCCOC(=O)c2ccccn2)nc1C
- Ratio IC50 [1]: 1.32e+07

Compound: CC1(C)CCCC2(C)OC(=O)C=C12 (racemic) [DIHYDROACTINIDIOLIDE]
- IC50 (Acetylcholinesterase [2]): 0.03 µM
- IC50 [3]: 50 µM
- IC50 [4]: 0.05 µM

Compound: CCN1CCN(c2ccc(-c3nc4ccccc4[nH]3)cc2)CC1
- IC50 (Acetylcholinesterase [5]): 5.18 µM
- IC50 (Cholinesterase [6]): 34.9 µM

Compound: O=c1c2ccc(OCCN3CCCC3)cc2oc2cc(OCCN3CCCC3)cc(O)c12
- IC50 (Acetylcholinesterase [7]): 0.12 µM

Compound: CC1=C[C@H]2c3c(O)cc(-c4cc5ccc(O)cc5o4)cc3O[C@@]3(c4ccc(O)cc4O)Oc4cc(O)ccc4[C@H](C1)[C@@H]23
- inhibition [8]: 37.3%

Compound: O=C(OC[C@H]1O[C@@H](OC(=O)c2cc(O)c(O)c(O)c2)[C@H](OC(=O)c2cc(O)c(O)c(O)c2)[C@@H](OC(=O)c2cc(O)c(O)c(O)c2)[C@@H]1O)c1cc(O)c(O)c(O)c1
- IC50 (Acetylcholinesterase [9]): 11.9 µM
- IC50 (Cholinesterase [10]): 18.3 µM

Compound: O=C(N/N=C/c1ccccn1)c1ccc(C(=O)NC23CC4CC(CC(C4)C2)C3)cc1
- IC50 (SK-N-MC): 42.4 µM

Compound: CC1=C[C@H]2c3c(O)cc(-c4cc5ccc(O)cc5o4)cc3O[C@@]3(c4ccc(O)c5c4OC(C)(C)C=C5)Oc4cc(O)ccc4[C@H](C1)[C@@H]23
- inhibition [8]: 63.3%
- Papp [11]: 8.7 ×10⁻⁶ cm/s

Compound: O=c1cc(/N=N/N=P(CCP(=N/N=N/c2cc(=O)oc3ccccc23)(c2ccccc2)c2ccccc2)(c2ccccc2)c2ccccc2)c2ccccc2o1
- Ratio IC50 (Homo sapiens): 3.81
- IC50 [12]: 338 µM
- IC50 (Acetylcholinesterase [13]): 0.035 µM
- IC50 [14]: 441 µM

Compound: C#CCOc1cccc(-c2cc(-c3ccc(OCCN4CCOCC4)cc3)nc(C)n2)c1
- IC50 (Acetylcholinesterase [15]): 0.00954 µM

Compound: c1ccc(C[n+]2ccc(-c3nc4ccccc4s3)cc2)cc1
- IC50 (Acetylcholinesterase [16]): 0.014 µM
- IC50 (Cholinesterase [17]): 0.182 µM

Compound: COc1cc(-c2nc3ccccc3s2)ccc1OCC(=O)NCCCNc1c2c(nc3ccccc13)CCCC2
- inhibition [18]: 33.7%

Compound: O=C(CCN1CCN(Cc2ccccc2)CC1)Nc1ccc2nc3n(c(=O)c2c1)CCC3
- IC50 [19]: 9.26 µM
- IC50 (Acetylcholinesterase [20]): 3.29 µM
- inhibition (Cholinesterase [21]): 45.3%
- IC50 (Beta-secretase 1): 0.129 µM

Compound: CO[C@@H]1C=C[C@@]23c4cc5c(cc4CN(C[C@@H]2OC(=O)c2ccc([N+](=O)[O-])cc2)C3C1)OCO5 (some centres not stated)
- inhibition [22]: 27%
- IC50 (Acetylcholinesterase [5]): 14.7 µM
